Laboratory results published in US8530490B2, “Uracil compound or salt thereof having human deoxyuridine triphosphatase inhibitory activity” (Taiho Pharmaceutical Co., Ltd., priority 2008, dated 2013).

target: human dUTPase (Homo sapiens (Human), UniProt P33316); experiment: Human dUTPase inhibitory effect: production of [5-3H]dUMP from [5-3H]dUTP, measured by HPLC with flow scintillation; assay type: biochemical; details: [5-3H]dUMP production from [5-3H]dUTP, 37° C., 15 minutes
Procedure: The inhibitory activity of the compound of the present invention against human dUTPase was determined by measuring the production of [5-^3H]deoxyuridine monophosphate (hereinafter, referred to as [5-^3H]dUMP) from [5-^3H]deoxyuridine triphosphate (hereinafter, referred to as [5-^3H]dUTP) according to a method shown below.
Specifically, 0.2 mL in total of a solution containing 0.02 mL of 1 μM dUTP (including 588 Bq/mL [5-3H]dUTP), 0.05 mL of a 0.2 M Tris buffer solution (pH 7.4), 0.05 mL of 16 mM magnesium chloride, 0.02 mL of 20 mM 2-mercaptoethanol, 0.02 mL of a 1% aqueous solution of fetal bovine serum-derived albumin, 0.02 mL of varying concentrations of test compound solutions or pure water as a control, and 0.02 mL of a solution of human dUTPase (expressed using E. coli and purified) was reacted at 37° C. for 15 minutes. Immediately after the reaction, the solution was heated at 100° C. for 1 minute to terminate the reaction, followed by centrifugation at 15000 rpm for 2 minutes. An aliquot (150 μL) of the supernatant thus obtained by centrifugation was analyzed using an Atlantis dC18 column (manufactured by Waters Corp., 4.6×250 mm) and a high-performance liquid chromatograph (manufactured by Shimadzu Corp., Prominence). Elution was performed at a flow rate of 0.8 mL/min for 30 minutes by a concentration gradient from a 4:6 mixed solution of a mobile phase A (10 mM potassium dihydrogen phosphate (pH 6.7), 10 mM tetrabutylammonium, and 0.25% methanol) and a mobile phase B (50 mM potassium dihydrogen phosphate (pH 6.7), 5.6 mM tetrabutylammonium, and 30% methanol) to the mobile phase B. The eluate was mixed with a scintillator (manufactured by PerkinElmer Co., Ltd., Ultima-Flo AP) at a 1:2 ratio, and the radioactivity of the produced [5-^3H]dUMP (RT 10.2 min) was measured using Radiomatic Flow Scintillation Analyzer (manufactured by PerkinElmer Co., Ltd., 525TR).
The inhibitory activity of the test compound was determined according to the formula shown below.

human dUTPase, sequence (P33316 94-252): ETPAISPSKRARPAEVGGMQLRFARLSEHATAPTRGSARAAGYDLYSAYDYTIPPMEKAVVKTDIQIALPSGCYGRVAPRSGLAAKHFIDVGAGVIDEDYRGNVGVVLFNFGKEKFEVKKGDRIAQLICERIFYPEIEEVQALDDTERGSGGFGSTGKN

Compound	IC50
C=CCOc1cccc([C@@H](C)NS(=O)(=O)CCCOCn2ccc(=O)[nH]c2=O)c1 [Example 69, (R)—N-(1-(3-(allyloxy)phenyl)ethyl)-3-((2,4-dioxo-3,4-dihydropyrimidin-1(2H)-yl)methoxy)propane-1-sulfonamide]	740 nM
O=c1ccn(COCCCC2(NS(=O)(=O)c3cccc(OCC4CC4)c3)CC2)c(=O)[nH]1 [Example 167, 3-(cyclopropylmethoxy)-N-(1-(3-((2,4-dioxo-3,4-dihydropyrimidin-1(2H)-yl)methoxy)propyl)cyclopropyl)benzenesulfonamide]	130 nM
CC[C@@](O)(CNS(=O)(=O)CCCOCn1ccc(=O)[nH]c1=O)c1ccc(F)c(OC2CCCC2)c1 [Example 3, (S)—N-(2-(3-(cyclopentyloxy)-4-fluorophenyl)-2-hydroxybutyl)-3-((2,4-dioxo-3,4-dihydropyrimidin-1(2H)-yl)methoxy)propane-1-sulfonamide]	870 nM
CC(C)(NS(=O)(=O)c1cccc(OCC2CC2)c1)c1ccc(Cn2ccc(=O)[nH]c2=O)nc1 [Example 179, 3-(cyclopropanemethoxy)-N-(2-(6-((2,4-dioxo-3,4-dihydropyrimidin-1(2H)-yl)methyl)pyridin-3-yl)propan-2-yl)benzenesulfonamide]	110 nM
O=c1ccn(COCCCS(=O)(=O)NCc2cccc(OC3CCCCC3)c2)c(=O)[nH]1 [Example 45, N-(3-(cyclohexyloxy)benzyl)-3-((2,4-dioxo-3,4-dihydropyrimidin-1(2H)-yl)methoxy)propane-1-sulfonamide]	2010 nM
C[C@@H](NS(=O)(=O)CCCOCn1ccc(=O)[nH]c1=O)c1cccc(OCC2(C)CC2)c1 [Example 60, (R)-3-((2,4-dioxo-3,4-dihydropyrimidin-1(2H)-yl)methoxy)-N-(1-(3-((1-methylcyclopropyl)methoxy)phenyl)ethyl)propane-1-sulfonamide]	490 nM
C[C@@H](NS(=O)(=O)CCCCCn1ccc(=O)[nH]c1=O)c1ccc(F)c(OCC2CC2)c1 [Example 101, (R)—N-(1-(3-(cyclopropylmethoxy)-4-fluorophenyl)ethyl)-5-(2,4-dioxo-3,4-dihydropyrimidin-1(2H)-yl)pentane-1-sulfonamide]	70 nM
Cc1ccccc1S(=O)(=O)NC(C)(C)CCCOCn1ccc(=O)[nH]c1=O [Example 151, N-(5-((2,4-dioxo-3,4-dihydropyrimidin-1(2H)-yl)methoxy)-2-methylpentan-2-yl)-2-methylbenzenesulfonamide]	5700 nM
C/C=C\c1cccc(S(=O)(=O)NC(C)(C)CCCOCn2ccc(=O)[nH]c2=O)c1 [Example 162, (Z)—N-(5-((2,4-dioxo-3,4-dihydropyrimidin-1(2H)-yl)methoxy)-2-methylpentan-2-yl)-3-(prop-1-enyl)benzenesulfonamide]	3960 nM
C[C@@H](NS(=O)(=O)CC/C=C/Cn1ccc(=O)[nH]c1=O)c1ccc(F)c(OCC2CC2)c1 [Example 100, (R,E)-N-(1-(3-(cyclopropylmethoxy)-4-fluorophenyl)ethyl)-5-(2,4-dioxo-3,4-dihydropyrimidin-1(2H)-yl)pent-3-ene-1-sulfonamide]	40 nM
CC(C)(CCCOCn1ccc(=O)[nH]c1=O)NS(=O)(=O)c1cccc(OC(F)F)c1 [Example 145, 3-(difluoromethoxy)-N-(5-((2,4-dioxo-3,4-dihydropyrimidin-1(2H)-yl)methoxy)-2-methylpentan-2-yl)benzenesulfonamide]	6290 nM
CN(C)c1cccc2c(S(=O)(=O)NC(C)(C)CCCOCn3ccc(=O)[nH]c3=O)cccc12 [Example 147, 5-(dimethylamino)-N-(5-((2,4-dioxo-3,4-dihydropyrimidin-1(2H)-yl)methoxy)-2-methylpentan-2-yl)naphthalene-1-sulfonamide]	9500 nM
O=c1ccn(COCCCS(=O)(=O)N[C@@H](c2ccc(F)c(OCC3CC3)c2)C2CC2)c(=O)[nH]1 [Example 40, (R)—N-(cyclopropyl (3-(cyclopropylmethoxy)-4-fluorophenyl)methyl)-3-((2,4-dioxo-3,4-dihydropyrimidin-1(2H)-yl)methoxy)propane-1-sulfonamide]	100 nM
O=c1ccn(COCCCS(=O)(=O)NC2(c3cccc(OCC4CC4)c3)CCCC2)c(=O)[nH]1 [Example 39, N-(1-(3-(cyclopropylmethoxy)phenyl)cyclopentyl)-3-((2,4-dioxo-3,4-dihydropyrimidin-1(2H)-yl)methoxy)propane-1-sulfonamide]	280 nM
CC[C@@](O)(CNS(=O)(=O)CCCn1ccc(=O)[nH]c1=O)c1ccc(F)c(OC2CCCC2)c1 [Example 99, (S)—N-(2-(3-(cyclopentyloxy)-4-fluorophenyl)-2-hydroxybutyl)-3-(2,4-dioxo-3,4-dihydroxypyrimidin-1(2H)-yl)propane-1-sulfonamide]	1810 nM
CC(C)(CCCOCn1ccc(=O)[nH]c1=O)NS(=O)(=O)c1cc(Cl)c(Cl)s1 [Example 138, 4,5-dichloro-N-(5-((2,4-dioxo-3,4-dihydropyrimidin-1(2H)-yl)methoxy)-2-methylpentan-2-yl)thiophene-2-sulfonamide]	3890 nM
O=c1ccn(COCCCS(=O)(=O)NC(c2ccccc2)c2cccc(OC(F)(F)C(F)F)c2)c(=O)[nH]1 (stereo not shown) [Example 15, 3-((2,4-dioxo-3,4-dihydropyrimidin-1(2H)-yl)methoxy)-N-(phenyl(3-(1,1,2,2-tetrafluoroethoxy)phenyl)methyl)propane-1-sulfonamide]	940 nM
C#C[C@H](C)Oc1cccc([C@@H](C)NS(=O)(=O)CCCOCn2ccc(=O)[nH]c2=O)c1 [Example 62, N—((R)-1-(3-((S)-but-3-yn-2-yloxy)phenyl)ethyl)-3-((2,4-dioxo-3,4-dihydropyrimidin-1(2H)-yl)methoxy)propane-1-sulfonamide]	370 nM
C#C[C@@H](C)Oc1cccc([C@@H](C)NS(=O)(=O)CCCOCn2ccc(=O)[nH]c2=O)c1 [Example 63, N—((R)-1-(3-((R)-but-3-yn-2-yloxy)phenyl)ethyl)-3-((2,4-dioxo-3,4-dihydropyrimidin-1(2H)-yl)methoxy)propane-1-sulfonamide]	470 nM
O=c1ccn(COCCCS(=O)(=O)NCc2cccc(OC3CCC3)c2)c(=O)[nH]1 [Example 4, N-(3-cyclobutoxybenzyl)-3-((2,4-dioxo-3,4-dihydropyrimidin-1(2H)-yl)methoxy)propane-1-sulfonamide]	610 nM
O=c1ccn(COCCCS(=O)(=O)NC2(c3ccccc3)CCCC2)c(=O)[nH]1 [Example 81, 3-((2,4-dioxo-3,4-dihydropyrimidin-1(2H)-yl)methoxy)-N-(1-phenylcyclopentyl)propane-1-sulfonamide]	9440 nM
O=c1ccn(COCCCS(=O)(=O)NCc2cccc(SCC3CC3)c2)c(=O)[nH]1 [Example 12, N-(3-(cyclopropylmethylthio)benzyl)-3-((2,4-dioxo-3,4-dihydropyrimidin-1(2H)-yl)methoxy)propane-1-sulfonamide]	2830 nM
O=c1ccn(CCCS(=O)(=O)NC(c2ccccc2)c2ccccc2)c(=O)[nH]1 [Example 111, N-benzhydryl-3-(2,4-dioxo-3,4-dihydropyrimidin-1(2H)-yl)propane-1-sulfonamide]	8270 nM
Cc1cccc(S(=O)(=O)NC(C)(C)CCCOCn2ccc(=O)[nH]c2=O)c1 [Example 154, N-(5-((2,4-dioxo-3,4-dihydropyrimidin-1(2H)-yl)methoxy)-2-methylpentan-2-yl)-3-methylbenzenesulfonamide]	8820 nM
CC[C@@H](NS(=O)(=O)CCCOCn1ccc(=O)[nH]c1=O)c1cccc(OC2CC2)c1 [Example 43, (R)—N-(1-(3-cyclopropoxyphenyl)propyl)-3-((2,4-dioxo-3,4-dihydropyrimidin-1(2H)-yl)methoxy)propane-1-sulfonamide]	90 nM
O=c1ccn(COCCCS(=O)(=O)NC(c2cccc(OCC3CC3)c2)c2cccc(OCC3CC3)c2)c(=O)[nH]1 [Example 17, N-(bis(3-(cyclopropylmethoxy)phenyl)methyl)-3-((2,4-dioxo-3,4-dihydropyrimidin-1(2H)-yl)methoxy)propane-1-sulfonamide]	210 nM
CC(NS(=O)(=O)CCCOCn1ccc(=O)[nH]c1=O)c1cccc(OC2CCCC2)c1 (stereo not shown) [Example 32, N-(1-(3-(cyclopentyloxy)phenyl)ethyl)-3-((2,4-dioxo-3,4-dihydropyrimidin-1(2H)-yl)methoxy)propane-1-sulfonamide]	140 nM
C[C@@H](NS(=O)(=O)CCCCCn1ccc(=O)[nH]c1=O)c1cccc(OCC2CC2)c1 [Example 109, (R)—N-(1-(3-(cyclopropylmethoxy)phenyl)ethyl)-5-(2,4-dioxo-3,4-dihydropyrimidin-1(2H)-yl)pentane-1-sulfonamide]	120 nM
